The results in this text go back to patent US11873291B2, “Quinoline cGAS antagonist compounds” (ImmuneSensor Therapeutics, Inc., priority 2020, dated 2024).

The structures appear in SMILES notation.

T1 sequence (Q8N884 147-522): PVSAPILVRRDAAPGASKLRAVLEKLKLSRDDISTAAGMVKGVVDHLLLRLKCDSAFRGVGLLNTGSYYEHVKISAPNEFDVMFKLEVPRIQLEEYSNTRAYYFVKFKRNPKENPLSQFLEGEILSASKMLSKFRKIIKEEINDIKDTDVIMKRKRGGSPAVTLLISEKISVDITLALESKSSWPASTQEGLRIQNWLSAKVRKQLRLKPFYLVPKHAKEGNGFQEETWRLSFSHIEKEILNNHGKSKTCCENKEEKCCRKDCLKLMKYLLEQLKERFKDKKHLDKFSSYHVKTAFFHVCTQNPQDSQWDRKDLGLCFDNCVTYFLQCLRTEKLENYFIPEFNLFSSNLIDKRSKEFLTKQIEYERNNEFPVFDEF

The first experiment concerns the target T1, recombinant human cGAS (aa147-522) (Homo sapiens, UniProt Q8N884).
T1 construct: recombinant human cGAS (aa147-522); His6-SUMO (cleaved yes); made in house; host or cells: E. coli BL21/pLys
The experiment can be described thus: In vitro inhibition assay of cGAS activity (ATP consumption, KinaseGlo Max). Format: biochemical. Particulars: Table 2, read-out: cGAS Inhibition Results IC50. How it is done: Expression and Purification of Recombinant cGAS Protein: cDNA encoding full-length or amino acids […] of human cGAS was inserted into a modified pET28a vector containing an in-frame His6-SUMO tag. The E. coli strain BL21/pLys harboring the plasmid was induced with 0.5 mM IPTG at 18° C. overnight. His6-SUMO tag was removed by a SUMO protease digestion following purification of the His6-SUMO-cGAS as described previously (Sun et al, 2013, Science 339, 786).
In vitro inhibition assay of cGAS activity: A 60 μL mixture containing 20 mM Tris-Cl, pH 7.5, 5 mM MgCl2, 0.2 mg/mL BSA, 0.01 mg/mL Herring testis DNA, 6.6 μM ATP, 0.1 mM GTP, 1.5 μg/mL of recombinant human cGAS (aa147-522) and serial dilutions of a test compound in DMSO was added to a 96-well plate and incubated at 37° C. for 20 minutes. At the end of reaction, 40 μL of KinaseGlo Max (Promega) was added and chemiluminescence was measured with a luminometer. Inhibitory effect of a compound is evaluated by plotting percentage of ATP consumption against logarithm of compound concentrations. IC50 value was calculated using GraphPad Prism 8 (GraphPad Software, Inc.).
The letter codes for cGAS IC50 include: A (<2 μM); B (2-30 μM); C (>30 μM).
For orientation: Kinase-Glo reads ATP consumption through a luciferase reaction.
Regarding `NS(=O)(=O)CCNc1cc(-c2cn[nH]c2)c2cc(C(F)(F)F)ccc2n1` [I-265], the IC50 was greater than 30 µM.
Still for that read-out and setting: the result for `O=C(O)COc1c(Br)ccc2c(-n3ccnc3)cc(-c3ccccc3)nc12` [I-379, 2-((7-bromo-4-(1H-imidazol-1-yl)-2-phenylquinolin-8-yl)oxy)acetic acid] reads 2 to 30 µM.
Same read-out and setting: the result for `Clc1ccc2c(-c3cn[nH]c3)cc(N3CCOC(c4nnn[nH]4)C3)nc2c1Cl` (stereo not drawn) [I-370] reads less than 2 µM; that for `O=C1CN(c2cc(Cl)nc3c(Cl)c(Cl)ccc23)CCN1` [I-307], greater than 30 µM; that for `O=C(O)C1CCCN(c2cc(-n3ccnc3)c3ccc(Cl)cc3n2)CC1` (stereo not drawn) [I-363], 2 to 30 µM.
On the same count and under the same terms, the result for `O=C1NC(=O)/C(=C\CCc2cc(-c3cn[nH]c3)c3ccc(Cl)c(Cl)c3n2)S1` [I-274, (E)-5-(3-(7,8-Dichloro-4-(1H-pyrazol-4-yl)quinolin-2-yl)propylidene)thiazolidine-2,4-dione] reads 2 to 30 µM.
Consider `Cc1cc(-n2ccnc2)c2ccc(Cl)c(Cl)c2n1` [I-405, 7,8-dichloro-4-(1H-imidazol-1-yl)-2-methylquinoline], for which the half-maximal inhibitory concentration (IC50) is 2 to 30 µM.
The same measure, in the same setting: the result for `O=S(=O)(NC1CCCN(c2cc(-n3ccnc3)c3ccc(Cl)cc3n2)C1)C1CC1` (stereo not drawn) [I-100] reads less than 2 µM.
The same measure, in the same setting: under `CN(CCS(N)(=O)=O)c1cc(-n2ccnc2)c2ccc(Cl)c(Cl)c2n1` [I-204] stands less than 2 µM.
On the same count and under the same terms, the result for `O=C1CN(c2cc(-n3ccnc3)c3ccc(Cl)c(Cl)c3n2)CC(C(=O)O)N1` (stereo not drawn) [I-334] reads greater than 30 µM; that for `O=C(O)Cc1cccc(-c2cc(-n3ccnc3)c3ccc(Cl)cc3n2)c1` [I-9], greater than 30 µM; that for `O=C(O)c1cc(Br)cc(-c2cc(-n3ccnc3)c3ccc(Cl)cc3n2)c1` [I-27], greater than 30 µM.
In the case of `Clc1ccc2c(-c3ccncc3)cc(-c3ccccc3)nc2c1` [I-70], the IC50 was greater than 30 µM.
On the same count and under the same terms, the result for `Clc1c(-n2ccnc2)cc2c(-n3ccnc3)cc(-c3ccccc3)nc2c1Cl` [I-52] reads greater than 30 µM; that for `Clc1ccc2c(-n3ccnc3)cc(-c3ccccc3)nc2c1` [I-1], 2 to 30 µM.
On the same count and under the same terms, the result for `CCN(CCN1CCOCC1)c1cc(-c2cn[nH]c2)c2ccc(Cl)c(Cl)c2n1` [I-212] reads 2 to 30 µM; that for `O=C(O)c1cc(OCCO)cc(-c2cc(-n3ccnc3)c3ccc(Cl)cc3n2)c1` [I-29], less than 2 µM; that for `O=C(O)CC1CCCN(c2cc(-n3ccnc3)c3ccc(Cl)cc3n2)C1` (stereo not drawn) [I-123, 2-(1-(7-chloro-4-(1H-imidazol-1-yl)quinolin-2-yl)piperidin-3-yl)acetic acid], 2 to 30 µM.
Still for that read-out and setting: under `O=C(O)c1cc(-c2cc(-n3ccnc3)c3ccc(Cl)cc3n2)ccc1OC(F)(F)F` [I-18] stands 2 to 30 µM; under `CN(CCC(=O)NCCC(=O)O)c1cc(-c2cn[nH]c2)c2ccc(Cl)c(Cl)c2n1` [I-320], less than 2 µM; under `CS(=O)(=O)NC1CCCN(c2cc(-n3ccnc3)c3ccc(Cl)cc3n2)C1` (stereo not drawn) [I-105, N-(1-(7-chloro-4-(1H-imidazol-1-yl)quinolin-2-yl)piperidin-3-yl)methanesulfonamide], 2 to 30 µM.
On to `CN(CCC(=O)N1CCCC(CO)C1)c1cc(-c2cn[nH]c2)c2ccc(Cl)c(Cl)c2n1` (stereo not drawn) [I-199], for which the IC50 lay within 2 to 30 µM.
The same measure, in the same setting: under `O=C(O)CNc1cc(Cl)c2ccc(Cl)c(Cl)c2n1` [I-171] stands greater than 30 µM; under `Clc1ccc2c(-c3cn[nH]c3)cc(-c3ccccc3)nc2c1` [I-67], 2 to 30 µM; under `CN(CCNS(=O)(=O)c1ccc(C(F)(F)F)cc1)c1cc(-n2ccnc2)c2ccc(Cl)cc2n1` [I-394], greater than 30 µM.
On the same count and under the same terms, the result for `CC(CN1CCOCC1)Nc1cc(-c2cn[nH]c2)c2ccc(Cl)c(Cl)c2n1` (stereo not drawn) [I-211] reads 2 to 30 µM; that for `O[C@H]1CCN(c2cc(-n3ccnc3)c3ccc(Cl)c(Cl)c3n2)C1` [I-144], less than 2 µM.
On the same count and under the same terms, under `CN(CC(N)=O)c1cc(-n2ccnc2)c2ccc(Cl)c(Cl)c2n1` [I-179] stands 2 to 30 µM.
Consider `N#CCCO[PH](=O)OCC1CCCN(c2cc(-c3cn[nH]c3)c3ccc(Cl)c(Cl)c3n2)C1` (stereo not drawn) [I-396], for which the IC50 is less than 2 µM.

The same experiment, now with this note: Table 3, read-out: cGAS Inhibition Results IC50.
Regarding `CN(CCS(=O)(=O)N1CCC(C(=O)O)C1)c1cc(-n2ccnc2)c2ccc(Cl)c(Cl)c2n1` (stereo not drawn) [I-627], the IC50 is less than 2 µM.
On the same count and under the same terms, the result for `O=C(O)COC[C@H]1CCCN(c2cc(-c3cn[nH]c3)c3ccc(Cl)c(Cl)c3n2)C1` [I-746] reads less than 2 µM.
The same measure, in the same setting: the result for `O=C(C[C@@H]1CCCN1c1cc(-n2ccnc2)c2ccc(Cl)c(Cl)c2n1)NCCC(O)(C(F)(F)F)C(F)(F)F` [I-543] reads 2 to 30 µM; that for `COc1ccc(OCCCN(c2cc(-n3ccnc3)c3ccc(Cl)c(Cl)c3n2)C(C)C)c(C(=O)O)c1` [I-849], 2 to 30 µM; that for `O=C(O)[C@@H]1CC[C@@H](CCO)N1c1cc(-n2ccnc2)c2ccc(Cl)c(Cl)c2n1` [I-783, (2S,5S)-1-(7,8-dichloro-4-(1H-imidazol-1-yl)quinolin-2-yl)-5-(2-hydroxyethyl)pyrrolidine-2-carboxylic acid], less than 2 µM.
On the same count and under the same terms, the result for `O[C@H]([C@@H]1CCCN1c1cc(-n2ccnc2)c2ccc(Cl)c(Cl)c2n1)C(F)(F)F` [I-655, (R)-1-((S)-1-(7,8-dichloro-4-(1H-imidazol-1-yl)quinolin-2-yl)pyrrolidin-2-yl)-2,2,2-trifluoroethan-1-ol] reads less than 2 µM.
For `O=C(O)CS(=O)(=O)NC[C@@H]1CCCN1c1cc(-n2ccnc2)c2ccc(Cl)c(Cl)c2n1` [I-639], the IC50 was less than 2 µM.
Still for that read-out and setting: under `CCOc1c(Cl)ccc2c(-n3ccnc3)cc(N3CCC[C@H]3COCCC(=O)O)nc12` [I-861] stands greater than 30 µM; under `C[C@@H]1C[C@@H](C(=O)O)N(c2cc(-n3ccnc3)c3ccc(Cl)c(Cl)c3n2)C1` [I-481], less than 2 µM.
The same measure, in the same setting: under `COC(=O)CNC(=O)C[C@@H]1CCCN1c1cc(-n2ccnc2)c2ccc(Cl)c(Cl)c2n1` [I-531] stands less than 2 µM.
The same measure, in the same setting: the result for `CC(C)(C)OC(=O)C[C@@H]1CCCN1c1cc(-n2ccnc2)c2ccc(Cl)c(Cl)c2n1` [I-573] reads 2 to 30 µM; that for `CN(CCN1C(=O)c2ccccc2S1(=O)=O)c1cc(-n2ccnc2)c2ccc(Cl)c(Cl)c2n1` [I-621], 2 to 30 µM; that for `CN(CCS(=O)(=O)NCC(=O)O)c1cc(-n2ccnc2)c2ccc(Cl)c(Cl)c2n1` [I-633], less than 2 µM.
On to `COC(=O)[C@@H]1CC[C@H](C)N1c1cc(-n2ccnc2)c2ccc(Cl)c(Cl)c2n1` [I-574], for which the IC50 lay in the range of 2 to 30 µM.
The same measure, in the same setting: the result for `O=C(O)[C@@H]1Cc2ccccc2N1c1cc(-n2ccnc2)c2ccc(Cl)c(Cl)c2n1` [I-476] reads 2 to 30 µM.
On the same count and under the same terms, the result for `COC(=O)[C@@H]1C[C@@H](N)CN1c1cc(-n2ccnc2)c2ccc(Cl)c(Cl)c2n1` [I-589] reads 2 to 30 µM.
On the same count and under the same terms, under `O=C(O)C1CCCCN1C(=O)C[C@@H]1CCCN1c1cc(-n2ccnc2)c2ccc(Cl)c(Cl)c2n1` (stereo partly drawn) [I-533] stands less than 2 µM; under `O=C(O)CCOC[C@@H]1CCCN1c1cc(N2CC[C@@H](O)C2)c2ccc(Cl)c(Cl)c2n1` [I-821, 3-(((S)-1-(7,8-dichloro-4-((R)-3-hydroxypyrrolidin-1-yl)quinolin-2-yl)pyrrolidin-2-yl)methoxy)propanoic acid], greater than 30 µM.

The same experiment, now with this note: cGAS Inhibition Results IC50, Table 2.
On to `CCOP(=O)(O)Cc1cc(-n2ccnc2)c2ccc(Cl)c(Cl)c2n1` [I-252, Ethyl hydrogen (7,8-dichloro-4-(1H-imidazol-1-yl)quinolin-2-yl)methylphosphonate], for which the IC50 is 2 to 30 µM.

What is called IC50 is the concentration at which inhibition is half-maximal.
